Data on 23 compounds can be found in patent US20240109900A1, “AZABICYCLIC SHP2 INHIBITORS” (IRBM S.P.A., priority 2021, published 2024).

Read-outs that look alike come from different tables or passages of the source.

In test [1] the test system is ERK phosphorylation in KYSE-520 cells. Kind of test: Phospho-ERK cellular assay. The class given is cell-based. As to conditions: KYSE-520 cells, 2 h at 37° C., phospho-ERK1/2 (Thr202/Tyr204) TR-FRET, read-out: PERK IC50. Summed up:
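TR-FRET read-out of ERK1/2 Thr202/Tyr204 phosphorylation was taken after overnight antibody incubation at room temperature. Before that, KYSE-520 cells were treated 2 h at 37 °C with compound dilutions and lysed 30 min. Percent inhibition relative to vehicle and cell-free wells was fitted four-parametrically to give IC50.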
On the technique in general: TR-FRET usually uses a lanthanide donor and a delayed reading to cut background.

For test [2], the target named is SHP-2 enzyme (Met1-Leu525) (Homo sapiens (Human), UniProt Q06124). Kind of test: SHP2 inhibition enzymatic assay. The class given is biochemical. The note with it: 0.5 nM SHP-2 activated by 500 nM IRS1 peptide, 75 μM DiFMUP substrate; read-out: SHP2wt-IC50. Summed up: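 Compounds were preincubated 30 min with 0.5 nM SHP-2 (Met1-Leu525) plus 500 nM IRS1 activating peptide (pH 7.2 HEPES, 5 mM DTT), then 75 μM DiFMUP substrate reacted 30 min at room temperature. After bpV quench, DiFMUP fluorescence gave % inhibition; four-parameter logistic fit yielded IC50.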
Sequence of SHP-2 enzyme (Met1-Leu525) (Q06124 1-525): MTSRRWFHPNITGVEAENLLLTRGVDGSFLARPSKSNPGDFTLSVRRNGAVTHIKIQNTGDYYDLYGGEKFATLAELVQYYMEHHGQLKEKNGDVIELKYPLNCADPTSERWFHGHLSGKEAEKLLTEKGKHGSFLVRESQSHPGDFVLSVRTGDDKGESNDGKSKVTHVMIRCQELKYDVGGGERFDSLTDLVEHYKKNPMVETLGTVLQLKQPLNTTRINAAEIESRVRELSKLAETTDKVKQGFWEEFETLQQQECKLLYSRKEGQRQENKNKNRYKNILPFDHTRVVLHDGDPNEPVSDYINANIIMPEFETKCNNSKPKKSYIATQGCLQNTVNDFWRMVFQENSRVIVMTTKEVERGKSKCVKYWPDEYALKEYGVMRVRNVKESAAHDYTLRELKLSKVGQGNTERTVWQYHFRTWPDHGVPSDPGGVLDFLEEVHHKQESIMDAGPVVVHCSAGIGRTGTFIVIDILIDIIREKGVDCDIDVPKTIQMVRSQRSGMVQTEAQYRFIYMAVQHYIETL

The term IC50 denotes the concentration needed to halve the response being measured. Consider `Cc1csc([C@@]2(CN)[C@@H]3CN(c4nc5[nH]nc(-c6ccc7nn(C)cc7c6Cl)c5c(=O)n4C)C[C@@H]32)n1` [Example 472, 6-((1R,5S,6r)-6-(aminomethyl)-6-(4-methylthiazol-2-yl)-3-azabicyclo[3.1.0]hexan-3-yl)-3-(4-chloro-2-methyl-2H-indazol-5-yl)-5-methyl-1,5-dihydro-4H-pyrazolo[3,4-d]pyrimidin-4-one], for which the IC50 in test [1] (Homo sapiens, KYSE-520, 2 h) was under 1000 nM; in test [2], under 500 nM.
In the same order, the values of `Cc1csc([C@@]2(CN)[C@@H]3CN(c4nc5[nH]cc(-c6ccc7nn(C)cc7c6Cl)c5c(=O)n4C)C[C@@H]32)n1` [Example 473, 2-((1R,5S,6r)-6-(aminomethyl)-6-(4-methylthiazol-2-yl)-3-azabicyclo[3.1.0]hexan-3-yl)-5-(4-chloro-2-methyl-2H-indazol-5-yl)-3-methyl-3,7-dihydro-4H-pyrrolo[2,3-d]pyrimidin-4-one] are under 1000 nM and under 500 nM.
In the same order, the values of `Cn1ccc([C@@]2(CN)[C@@H]3CN(c4cnc5c(-c6ccc7nn(C)cc7c6Cl)n[nH]c5n4)C[C@@H]32)n1` [Example 474, ((1R,5S,6r)-3-(3-(4-chloro-2-methyl-2H-indazol-5-yl)-1H-pyrazolo[3,4-b]pyrazin-6-yl)-6-(1-methyl-1H-pyrazol-3-yl)-3-azabicyclo[3.1.0]hexan-6-yl)methanamine] are under 1000 nM and under 500 nM.
Take `Cc1nc2ccc(-c3n[nH]c4nc(N5C[C@@H]6[C@H](C5)[C@@]6(CN)c5ccn(C)n5)cnc34)c(Cl)c2s1` [Example 475, ((1R,5S,6r)-3-(3-(7-chloro-2-methylbenzo[d]thiazol-6-yl)-1H-pyrazolo[3,4-b]pyrazin-6-yl)-6-(1-methyl-1H-pyrazol-3-yl)-3-azabicyclo[3.1.0]hexan-6-yl)methanamine]: the IC50 in test [1] (Homo sapiens, KYSE-520, 2 h) is under 1000 nM; in test [2], under 500 nM.
As for `COc1nccc(-c2n[nH]c3nc(N4C[C@@H]5[C@H](C4)C5(CN)c4nc(C)cs4)cnc23)c1Cl` (stereo partly shown) [Example 476], the IC50 in test [1] was under 1000 nM; in test [2], under 500 nM.
In the same order, the values of `Cc1csc(C2(CN)[C@@H]3CN(c4cnc5c(-c6ccc7nn(CC#N)cc7c6Cl)n[nH]c5n4)C[C@@H]32)n1` (stereo partly shown) [Example 478] are under 1000 nM and under 500 nM.
In the same order, the values of `Cc1csc([C@@]2(CN)[C@@H]3CN(c4cnc5c(-c6ccc7nnsc7c6Cl)n[nH]c5n4)C[C@@H]32)n1` [Example 479] are under 1000 nM and under 500 nM.
In the same order, the values of `Cc1csc(C2(CN)[C@@H]3CN(c4cnc5c(-c6ccc7c(cnn7C)c6Cl)n[nH]c5n4)C[C@@H]32)n1` (stereo partly shown) [Example 480] are under 1000 nM and under 500 nM.
Regarding `Cc1csc([C@@]2(CN)[C@@H]3CCN(c4cnc5c(-c6cc7ccnn7cc6Cl)n[nH]c5n4)C[C@@H]32)n1` [Example 481, ((1S,6R,7S)-3-(3-(6-chloropyrazolo[1,5-a]pyridin-5-yl)-1H-pyrazolo[3,4-b]pyrazin-6-yl)-7-(4-methylthiazol-2-yl)-3-azabicyclo[4.1.0]heptan-7-yl)methanamine], the IC50 in test [1] (Homo sapiens, KYSE-520, 2 h) is under 1000 nM; in test [2], under 500 nM.
As to `Cc1csc(C2(CN)[C@@H]3CN(c4cnc5c(-c6cccn7nccc67)n[nH]c5n4)C[C@@H]32)n1` (stereo partly shown) [Example 482], the IC50 in test [1] was under 1000 nM; in test [2], under 500 nM.
For the compound `Cc1csc([C@@]2(CN)[C@@H]3CN(c4cnc5c(-c6ccc7ncn(C)c7c6Cl)n[nH]c5n4)C[C@@H]32)n1` [Example 483], the IC50 in test [1] is under 1000 nM; in test [2] it was under 500 nM.
In the case of `CNC[C@]1(c2nc(C)cs2)[C@@H]2CN(c3cnc4c(-c5ccc6nn(C)cc6c5Cl)n[nH]c4n3)C[C@@H]21` [Example 484, 1-((1R,5S,6r)-3-(3-(4-chloro-2-methyl-2H-indazol-5-yl)-1H-pyrazolo[3,4-b]pyrazin-6-yl)-6-(4-methylthiazol-2-yl)-3-azabicyclo[3.1.0]hexan-6-yl)-N-methylmethanamine], the IC50 was under 1000 nM in test [1] (Homo sapiens, KYSE-520, 2 h) and under 500 nM in test [2].
In the case of `Cc1nc([C@@]2(CN)[C@@H]3CN(c4cnc5c(-c6ccc7nn(C)cc7c6Cl)n[nH]c5n4)C[C@@H]32)cs1` [Example 485, ((1R,5S,6r)-3-(3-(4-chloro-2-methyl-2H-indazol-5-yl)-1H-pyrazolo[3,4-b]pyrazin-6-yl)-6-(2-methylthiazol-4-yl)-3-azabicyclo[3.1.0]hexan-6-yl)methanamine], the IC50 was under 1000 nM in test [1] (Homo sapiens, KYSE-520, 2 h) and under 500 nM in test [2].
With `Cn1cc2c(Cl)c(-c3n[nH]c4nc(N5C[C@@H]6[C@H](C5)[C@@]6(CN)c5nccs5)cnc34)ccc2n1` [Example 486, ((1R,5S,6r)-3-(3-(4-chloro-2-methyl-2H-indazol-5-yl)-1H-pyrazolo[3,4-b]pyrazin-6-yl)-6-(thiazol-2-yl)-3-azabicyclo[3.1.0]hexan-6-yl)methanamine], the IC50 in test [1] (Homo sapiens, KYSE-520, 2 h) was under 1000 nM; in test [2], under 500 nM.
In the same order, the values of `Cn1cc2c(Cl)c(-c3n[nH]c4nc(N5C[C@@H]6[C@H](C5)[C@@]6(CN)c5nc(Cl)cs5)cnc34)ccc2n1` [Example 487, ((1R,5S,6r)-3-(3-(4-chloro-2-methyl-2H-indazol-5-yl)-1H-pyrazolo[3,4-b]pyrazin-6-yl)-6-(4-chlorothiazol-2-yl)-3-azabicyclo[3.1.0]hexan-6-yl)methanamine] are under 1000 nM and under 500 nM.
In the same order, the values of `Cn1cc2c(Cl)c(-c3n[nH]c4nc(N5C[C@@H]6[C@H](C5)[C@@]6(CN)c5nc(C(F)(F)F)cs5)cnc34)ccc2n1` [Example 488, ((1R,5S,6r)-3-(3-(4-chloro-2-methyl-2H-indazol-5-yl)-1H-pyrazolo[3,4-b]pyrazin-6-yl)-6-(4-(trifluoromethyl)thiazol-2-yl)-3-azabicyclo[3.1.0]hexan-6-yl)methanamine] are under 1000 nM and under 500 nM.
Take `Cn1cc2c(Cl)c(-c3n[nH]c4nc(N5C[C@@H]6[C@H](C5)[C@@]6(CN)c5ncc(F)s5)cnc34)ccc2n1` [Example 489, ((1R,5S,6r)-3-(3-(4-chloro-2-methyl-2H-indazol-5-yl)-1H-pyrazolo[3,4-b]pyrazin-6-yl)-6-(5-fluorothiazol-2-yl)-3-azabicyclo[3.1.0]hexan-6-yl)methanamine]: the IC50 was under 1000 nM in test [1] (Homo sapiens, KYSE-520, 2 h) and under 500 nM in test [2].
In the same order, the values of `Cn1cc2c(Cl)c(-c3n[nH]c4nc(N5C[C@@H]6[C@H](C5)[C@@]6(CN)c5cnsn5)cnc34)ccc2n1` [Example 490, ((1R,5S,6r)-3-(3-(4-chloro-2-methyl-2H-indazol-5-yl)-1H-pyrazolo[3,4-b]pyrazin-6-yl)-6-(1,2,5-thiadiazol-3-yl)-3-azabicyclo[3.1.0]hexan-6-yl)methanamine] are under 1000 nM and under 500 nM.
As for `Cn1cc2c(Cl)c(-c3n[nH]c4nc(N5C[C@@H]6[C@H](C5)[C@@]6(CN)c5ccccn5)cnc34)ccc2n1` [Example 491, ((1R,5S,6r)-3-(3-(4-chloro-2-methyl-2H-indazol-5-yl)-1H-pyrazolo[3,4-b]pyrazin-6-yl)-6-(pyridin-2-yl)-3-azabicyclo[3.1.0]hexan-6-yl)methanamine], the IC50 was under 1000 nM in test [1] (Homo sapiens, KYSE-520, 2 h) and under 500 nM in test [2].
In the same order, the values of `Cc1nc2ccc(-c3n[nH]c4nc(N5C[C@@H]6[C@H](C5)[C@@]6(CN)c5ccccn5)cnc34)c(Cl)c2s1` [Example 492, ((1R,5S,6r)-3-(3-(7-chloro-2-methylbenzo[d]thiazol-6-yl)-1H-pyrazolo[3,4-b]pyrazin-6-yl)-6-(pyridin-2-yl)-3-azabicyclo[3.1.0]hexan-6-yl)methanamine] are under 1000 nM and under 500 nM.
As for `Cc1ccc([C@@]2(CN)[C@@H]3CN(c4cnc5c(-c6ccc7nn(C)cc7c6Cl)n[nH]c5n4)C[C@@H]32)nc1` [Example 493, ((1R,5S,6r)-3-(3-(4-chloro-2-methyl-2H-indazol-5-yl)-1H-pyrazolo[3,4-b]pyrazin-6-yl)-6-(5-methylpyridin-2-yl)-3-azabicyclo[3.1.0]hexan-6-yl)methanamine], the IC50 in test [1] (Homo sapiens, KYSE-520, 2 h) is under 1000 nM; in test [2] it was under 500 nM.
In the same order, the values of `Cn1cc2c(Cl)c(-c3n[nH]c4nc(N5C[C@@H]6[C@H](C5)[C@@]6(CN)c5cccc(Cl)n5)cnc34)ccc2n1` [Example 494, ((1R,5S,6r)-3-(3-(4-chloro-2-methyl-2H-indazol-5-yl)-1H-pyrazolo[3,4-b]pyrazin-6-yl)-6-(6-chloropyridin-2-yl)-3-azabicyclo[3.1.0]hexan-6-yl)methanamine] are under 1000 nM and under 500 nM.
In the same order, the values of `Cn1cc2c(Cl)c(-c3n[nH]c4nc(N5C[C@@H]6[C@H](C5)[C@@]6(CN)c5ccc(F)cn5)cnc34)ccc2n1` [Example 495, ((1R,5S,6r)-3-(3-(4-chloro-2-methyl-2H-indazol-5-yl)-1H-pyrazolo[3,4-b]pyrazin-6-yl)-6-(5-fluoropyridin-2-yl)-3-azabicyclo[3.1.0]hexan-6-yl)methanamine] are under 1000 nM and under 500 nM.
